In one assay the target is T1, GABAA4 (α4β3δ) receptor (Homo sapiens, UniProt P28472+P48169).
T1 construct: expressed in transfected cells; host or cells: HEK293 (transient transfection, plasmids 1:1:1)
The assay is described as follows: Patch-clamp electrophysiology, compound alone or with 10 nM GABA (Table 3). Format: cell-based. Particulars: for Emax: relative to peak current in GABA only. On the procedure: (§1) The present invention applies the two subunits of the recombinant GABAA receptor: α1β2γ2 and α4β3δ to evaluate the potency of the exemplary compounds in vitro by patch-clamp electrophysiology.
(§2) Extracellular fluid: 140 mM NaCl, 5 mM CsCl, 2 mM CaCl2·2H2O, 1 mM MgCl2·6H2O, 5 mM HEPES, 10 mM D-Glucose, pH=7.4 (NaOH).
(§3) Intracellular fluid: 130 mM CsCl, 0.1 mM CaCl2·H2O, 2 mM MgCl2·6H2O, 1.1 mM EGTA, 5 mM Na2-ATP, 10 mM HEPES, pH=7.2 (CsOH).
HEK293 cell line was cultured in DMEM containing 10% fetal bovine serum and 5% carbon dioxide at 37° C.
Cell passage: The old medium was removed, and the cells were washed once with PBS. Then 1 mL 0.25%-Trypsin-EDTA solution was added to digest cells. The culture dish was incubated at 37° C. in pre-warmed incubator for 0.5 minutes. As soon as cells were detached, about 5 mL 37° C. pre-warmed complete medium was added. Cell aggregates were dissociated by gentle pipetting. The cell suspension was transferred into a sterile centrifuge tube and then the cell suspension was be spun at approximately 1000 rpm for 5 minutes. The cells were amplified or maintained by seeding 2.5×10^5 cells in a 6 cm dish (final medium volume: 5 mL). For transfection, 8×10^3 cells were plated onto coverslips, and cultured in a 24-well plate (final medium volume: […]).
Transfection: Second day, the transfection of GABAA4 (α4, β3, δ plasmid ratio 1:1:1) was performed. The X-tremeGENE HP DAN Transfection Reagents kit were used. The ratio of the plasmid and transfection reagent was 1 μg: 2 μL. The amount of plasmid in the 24-well plate was 0.5 μg per well, and the transfection reagent was 1 μL. The following specific steps were taken for preparing the 12 wells: The 600 μL Opti-MEM was added to a sterile centrifuge tube along with 6 μg of plasmid and was allowed to mix well; Then, the 12 μL of transfection reagent was added, mixed well following 15 min incubation at room temperature. The transfection complex was then inoculated into the cell, 50 μL per well, and the transfection complex was lightly stirred and mixed.
This mixture was changed on the third day, and the patch-clamp was performed on the fourth day.
(§4) Glass pipette (BF 150-86-10, Sutter Instruments) was pulled using a micropipette puller (P97, Sutter Instruments). The glass pipette was manipulated using a micro-manipulator (MP285, Sutter Instruments) under the microscope (IX71, Olympus). After touching the cell, a slight suction was applied to achieve high seal resistance (GQ). Fast capacitance (in pF) compensation was made after achieving high seal, and the membrane was broken. Cell capacitance (in pF) compensation was made from whole-cell capacitance compensation after the whole cell mode was achieved. No leak subtraction was made.
(§5) The test and control solutions flowed into a recording chamber mounted on the stage of an inverted microscope via a gravity-fed solution delivery system. During the experiment, solutions were withdrawn from the recording chamber by vacuum aspiration. Each concentration was tested at multiple times. All tests were performed at room temperature.
Whole cell model recorded GABAA4 receptors current experimental protocol was indicated as follows: When sealing, cell was at a holding potential of −70 mV, with gap-free mode to record the peak current. The cell would be applied with 10 nM GABA to active current. After the test articles application for 30 s, each concentration of test articles was applied with 10 nM GABA followed by 2 minutes washout using extracellular solution. Finally, 10 μM GABA was used as a positive control. The data were collected by EPC-10 amplifier and stored in PatchMaster (HEKA) software.
The following criteria are used to determine whether the data is acceptable: • (1) Electrode resistance <5MΩ • (2) Seal resistance >1GΩ • (3) The start of access resistance <15 MΩ • (4) The end of access resistance <15 MΩ • (5) No obvious spontaneous current decay. • (6) No obvious current leakage when the membrane potential is-70 mv. […]

The target in another assay is T2, GABAA1 (α1β2γ2) receptor (Homo sapiens, UniProt P14867+P47870).
T2 construct: expressed in transfected cells
T2 sequence (P14867 28-456): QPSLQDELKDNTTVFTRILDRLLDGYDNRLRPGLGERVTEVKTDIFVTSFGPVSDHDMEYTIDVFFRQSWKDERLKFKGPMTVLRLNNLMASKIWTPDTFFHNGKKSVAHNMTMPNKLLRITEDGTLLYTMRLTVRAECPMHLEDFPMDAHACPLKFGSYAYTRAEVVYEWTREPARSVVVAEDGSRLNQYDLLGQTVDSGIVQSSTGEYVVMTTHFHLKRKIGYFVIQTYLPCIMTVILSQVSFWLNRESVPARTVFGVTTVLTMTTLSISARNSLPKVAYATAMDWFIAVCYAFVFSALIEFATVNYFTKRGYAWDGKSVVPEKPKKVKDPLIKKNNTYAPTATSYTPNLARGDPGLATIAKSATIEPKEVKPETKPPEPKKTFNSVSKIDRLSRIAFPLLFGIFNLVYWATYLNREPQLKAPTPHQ
T2 sequence (P47870 26-512): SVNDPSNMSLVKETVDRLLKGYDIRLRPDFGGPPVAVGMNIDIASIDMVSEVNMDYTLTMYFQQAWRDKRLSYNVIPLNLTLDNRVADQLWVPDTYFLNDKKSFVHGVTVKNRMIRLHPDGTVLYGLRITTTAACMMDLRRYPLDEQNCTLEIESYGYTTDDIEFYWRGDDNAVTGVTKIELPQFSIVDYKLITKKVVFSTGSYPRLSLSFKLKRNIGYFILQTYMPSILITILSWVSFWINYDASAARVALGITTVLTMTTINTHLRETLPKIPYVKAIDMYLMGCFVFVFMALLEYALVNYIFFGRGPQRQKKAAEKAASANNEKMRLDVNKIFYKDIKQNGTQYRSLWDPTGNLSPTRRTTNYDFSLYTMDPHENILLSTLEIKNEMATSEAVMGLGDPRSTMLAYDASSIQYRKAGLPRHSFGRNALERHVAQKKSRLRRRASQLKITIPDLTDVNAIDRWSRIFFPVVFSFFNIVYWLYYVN
T2 sequence (P18507 40-475 partner): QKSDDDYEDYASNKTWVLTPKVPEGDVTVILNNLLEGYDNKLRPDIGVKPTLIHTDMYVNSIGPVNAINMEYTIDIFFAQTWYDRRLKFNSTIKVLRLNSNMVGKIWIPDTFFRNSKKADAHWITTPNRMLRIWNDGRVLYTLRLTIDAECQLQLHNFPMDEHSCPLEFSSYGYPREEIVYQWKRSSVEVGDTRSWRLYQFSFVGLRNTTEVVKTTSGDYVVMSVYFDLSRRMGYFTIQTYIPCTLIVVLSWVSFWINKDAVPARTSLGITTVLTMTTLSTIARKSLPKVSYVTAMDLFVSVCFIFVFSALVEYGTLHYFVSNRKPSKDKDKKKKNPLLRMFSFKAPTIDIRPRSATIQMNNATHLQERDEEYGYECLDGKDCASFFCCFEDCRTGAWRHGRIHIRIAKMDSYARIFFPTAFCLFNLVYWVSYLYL
The assay is described as follows: Patch-clamp electrophysiology on recombinant GABAA1 receptor in HEK293 cells, with 3 μM GABA. Format: cell-based. The conditions noted are these: for Emax at 0.1 µM: 0.1 μM compound together with 3 μmol GABA; for Emax at 0.1 µM / Emax at 1 µM: read-out: potency: ratio of the peak current on the GABAA1 receptor to the peak current in 100 μmol GABA; for Emax at 1 µM: 1 μM compound together with 3 μmol GABA. On the procedure: as §1, §2, §3
The HEK293 cells line stably expressing GABAA (α1β2γ2) receptors was cultured in Dulbecco's Modified Eagle Medium (DMEM) supplemented with 10% fetal bovine serum, 800 μg/mL G418, 200 μg/mL Hygromycin B and 100 μg/mL Zeocin. Cells were grown in a humidified incubator at 37° C. with 5% carbon dioxide.
Before manual patch clamp test, the cells were detached using 0.25%-Trypsin-EDTA solution. Then 8×10^3 cells were plated onto coverslips, and cultured in a 24-well plate (final medium volume: 500 μL) and tested after 18 hours by patch clamp.
as §4, §5
Whole cell model recorded GABAA1 receptors current experimental protocol was indicated as follows: When sealing, cell was at a holding potential of −70 mV, with gap-free mode to record the peak current. The cell would be applied with 3 μM GABA to active current. After the test articles application for 30 s, each concentration of test articles was applied with 3 μM GABA followed by 2 minutes washout using extracellular solution. Finally, 100 μM GABA was used as a positive control. The data were collected by EPC-10 amplifier and stored in PatchMaster (HEKA) software.
The following criteria are used to determine whether the data is acceptable: • (1) Electrode resistance <5MΩ • (2) Seal resistance >1GΩ • (3) The start of access resistance <15 MΩ • (4) The end of access resistance <15 MΩ • (5) No obvious spontaneous current decay. • (6) No obvious current leakage when the membrane potential is-70 mv. 56.6 Data Analysis
In the detection of GABAA1, the currents of 3 μM GABA and different concentrations of test compounds were respectively normalized to the current of 100 μM GABA
[formula] and then the activation rate corresponding to each concentration was calculated.
[formula] and then the activation rate corresponding to each concentration was calculated. Means, Standard Deviation and Standard Error were calculated for each test group. EC50 value was calculated using nonlinear regression: Y=Bottom+(Top−Bottom)/(1+10^((Log EC50−X)×HillSlope))
To fit data to the concentration-response, EC50 was the concentration giving a half-maximum effect and Hillslope was the Hill coefficient. Curve-fitting and EC50 calculations were performed using Graphpad5.0 software.
Emax is defined as the ratio of the peak current generated on the GABAA1 receptor to the peak current generated only in 100 μmol of GABA and the ratio is multiplied by 100%. The peak current generated on the GABAA1 receptor is that the exemplary compounds act on the GABAA1 receptor together with 3 μmol GABA.

[1] abbreviates: with 10 nM GABA, read-out: Emax (with 10 nM GABA).
Setting [2] is: without GABA, read-out: Emax (without GABA).
Setting [3] is: with 10 nM GABA, read-out: EC50 (with 10 nM GABA).
Setting [4] is: without GABA, read-out: EC50 (without GABA).

The structures appear in SMILES notation. Read-outs that look alike come from different tables or passages of the source. Where only a bound is given, the exact number is not on record here.

T1 sequence (P48169 36-554): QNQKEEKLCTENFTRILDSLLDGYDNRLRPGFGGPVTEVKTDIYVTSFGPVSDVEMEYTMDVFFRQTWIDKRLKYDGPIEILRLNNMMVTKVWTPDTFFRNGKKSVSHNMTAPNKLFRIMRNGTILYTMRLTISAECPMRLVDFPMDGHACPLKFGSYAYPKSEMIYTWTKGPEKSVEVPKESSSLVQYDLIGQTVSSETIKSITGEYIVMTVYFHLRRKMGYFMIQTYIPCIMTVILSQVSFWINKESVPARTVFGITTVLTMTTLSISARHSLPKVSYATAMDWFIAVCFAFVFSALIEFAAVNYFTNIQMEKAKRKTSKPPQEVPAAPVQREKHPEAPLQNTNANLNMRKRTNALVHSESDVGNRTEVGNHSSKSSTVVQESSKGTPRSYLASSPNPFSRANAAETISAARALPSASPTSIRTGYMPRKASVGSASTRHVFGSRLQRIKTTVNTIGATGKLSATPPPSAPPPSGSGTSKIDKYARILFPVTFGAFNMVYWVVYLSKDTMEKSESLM
T1 sequence (P28472 26-473): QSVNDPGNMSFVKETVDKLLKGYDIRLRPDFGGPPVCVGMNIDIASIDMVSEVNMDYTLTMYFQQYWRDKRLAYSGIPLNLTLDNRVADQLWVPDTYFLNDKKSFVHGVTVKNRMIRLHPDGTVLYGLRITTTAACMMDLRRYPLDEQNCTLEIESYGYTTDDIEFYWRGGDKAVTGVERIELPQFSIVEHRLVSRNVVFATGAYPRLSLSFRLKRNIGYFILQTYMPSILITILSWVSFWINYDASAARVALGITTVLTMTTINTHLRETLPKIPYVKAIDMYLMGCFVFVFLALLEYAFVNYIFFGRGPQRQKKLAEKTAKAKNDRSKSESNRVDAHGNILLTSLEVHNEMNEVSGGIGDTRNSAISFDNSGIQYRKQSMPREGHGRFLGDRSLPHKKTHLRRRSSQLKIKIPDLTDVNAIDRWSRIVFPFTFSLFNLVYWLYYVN
T1 sequence (O14764 25-452 partner): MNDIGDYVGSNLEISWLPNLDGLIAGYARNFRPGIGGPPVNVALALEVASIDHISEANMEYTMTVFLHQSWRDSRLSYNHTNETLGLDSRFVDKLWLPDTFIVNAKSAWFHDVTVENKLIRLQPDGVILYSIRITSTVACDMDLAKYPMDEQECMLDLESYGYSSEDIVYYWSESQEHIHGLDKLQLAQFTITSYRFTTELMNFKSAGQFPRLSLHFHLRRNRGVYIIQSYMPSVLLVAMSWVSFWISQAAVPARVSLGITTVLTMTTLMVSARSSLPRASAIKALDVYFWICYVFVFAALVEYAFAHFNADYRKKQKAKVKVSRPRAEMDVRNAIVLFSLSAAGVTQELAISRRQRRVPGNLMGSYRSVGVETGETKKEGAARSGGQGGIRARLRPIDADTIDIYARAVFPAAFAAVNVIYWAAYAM

In the case of `CC(=O)C1CCCC2[C@@H]3CC[C@H]4C[C@H](O)CC[C@]4(C)[C@H]3CC[C@]12C` (some centres unmarked) [KH001], the EC50 on GABAA4 (α4β3δ) receptor (EC50 (with 10 nM GABA), with 10 nM GABA) was 132 nM; at GABAA4 (α4β3δ) receptor (EC50 (without GABA), without GABA), 173 nM. In addition, the Emax at GABAA4 (α4β3δ) receptor (setting [1]) came out at 91.7%; on GABAA4 (α4β3δ) receptor (setting [2]), 103%. At GABAA1 (α1β2γ2) receptor (HEK293), the Emax at 0.1 µM lay within 20 to 40%. In addition, at GABAA1 (α1β2γ2) receptor (HEK293), the Emax at 1 µM fell in the range of 60 to 80%.

As to `C[C@@]1(O)CC[C@@]2(C)[C@@H](CC[C@@H]3[C@@H]2CC[C@]2(C)[C@@H](C(=O)COc4noc5ccccc45)CCC[C@@H]32)C1` [KH025], the figures for the 50% effective concentration (EC50) on GABAA4 (α4β3δ) receptor (setting [3]), at GABAA4 (α4β3δ) receptor (setting [4]) and at GABAA1 (α1β2γ2) receptor (together with 3 μmol GABA) were 572 nM, 947 nM and 620 nM, respectively. For the same compound, the Emax came to 92.5% at GABAA4 (α4β3δ) receptor (setting [1]); 84.6% on GABAA4 (α4β3δ) receptor (setting [2]); 93.7% on GABAA1 (α1β2γ2) receptor (HEK293, together with 3 μmol GABA, relative to peak current in 100 μmol GABA). Further, at GABAA1 (α1β2γ2) receptor (HEK293), the Emax at 0.1 µM was in the range of 0 to 20%. The Emax at 1 µM on GABAA1 (α1β2γ2) receptor (HEK293) lay in the range of 60 to 80%.

With `C[C@@]1(O)CC[C@@]2(C)[C@@H](CC[C@@H]3[C@@H]2CC[C@]2(C)[C@@H](C(=O)COc4ccon4)CCC[C@@H]32)C1` [KH038], on GABAA1 (α1β2γ2) receptor (HEK293), the Emax at 0.1 µM lay in the range of 0 to 20% and the Emax at 1 µM was 40 to 60%.

As to `C[C@@]1(O)CC[C@@]2(C)[C@@H](CC[C@@H]3[C@@H]2CC[C@]2(C)[C@@H](C(=O)Cn4nnc(-c5ccccc5)n4)CCC[C@@H]32)C1` [KH039], the EC50 on GABAA4 (α4β3δ) receptor (setting [3]) and at GABAA4 (α4β3δ) receptor (setting [4]) was > 4000 nM in each case. Further, the Emax turned out to be 125% at GABAA4 (α4β3δ) receptor (setting [1]) and 121% on GABAA4 (α4β3δ) receptor (setting [2]). Besides, the Emax at 0.1 µM on GABAA1 (α1β2γ2) receptor (HEK293) lay in the range of 0 to 20%. At GABAA1 (α1β2γ2) receptor (HEK293), the Emax at 1 µM was in the range of 60 to 80%.

As to `C[C@@]1(O)CC[C@@]2(C)[C@@H](CC[C@@H]3[C@@H]2CC[C@]2(C)[C@@H](C(=O)Cn4cc(C#N)cn4)CCC[C@@H]32)C1` [KH040], at GABAA1 (α1β2γ2) receptor (HEK293), the Emax at 0.1 µM fell in the range of 0 to 20% and the Emax at 1 µM is 20 to 40%.

For the compound `C[C@@]1(O)CC[C@@]2(C)[C@@H](CC[C@@H]3[C@@H]2CC[C@]2(C)[C@@H](C(=O)CSc4cccs4)CCC[C@@H]32)C1` [KH041], at GABAA1 (α1β2γ2) receptor (HEK293), the Emax at 0.1 µM was in the range of 0 to 20% and the Emax at 1 µM fell in the range of 60 to 80%.

As for `C[C@@]1(O)CC[C@@]2(C)[C@@H](CC[C@@H]3[C@@H]2CC[C@]2(C)[C@@H](C(=O)CO)CCC[C@@H]32)C1` [KH042], on GABAA1 (α1β2γ2) receptor (HEK293), the Emax at 0.1 µM lay in the range of 0 to 20% and the Emax at 1 µM is 40 to 60%.

Turning to `C[C@@]1(O)CC[C@@]2(C)[C@@H](CC[C@@H]3[C@@H]2CC[C@]2(C)[C@@H](C(=O)Cn4nccn4)CCC[C@@H]32)C1` [KH043], on GABAA1 (α1β2γ2) receptor (HEK293), the Emax at 0.1 µM lay within 0 to 20% and the Emax at 1 µM was 20 to 40%.

`Cn1nnnc1SCC(=O)[C@H]1CCC[C@H]2[C@@H]3CC[C@@H]4C[C@](C)(O)CC[C@@H]4[C@H]3CC[C@]12C` [KH047]: on GABAA1 (α1β2γ2) receptor (HEK293), the Emax at 0.1 µM was 0 to 20% and the Emax at 1 µM is 0 to 20%.

For the compound `C[C@@]1(O)CC[C@H]2[C@H](CC[C@@H]3[C@@H]2CC[C@]2(C)[C@@H](C(=O)COc4ncnc5cnc(F)cc45)CCC[C@@H]32)C1` [KH048], at GABAA1 (α1β2γ2) receptor (HEK293), the Emax at 0.1 µM lay within 0 to 20% and the Emax at 1 µM lay in the range of 0 to 20%.

On to `C[C@@]1(O)CC[C@H]2[C@H](CC[C@@H]3[C@@H]2CC[C@]2(C)[C@@H](C(=O)COc4nc[nH]n4)CCC[C@@H]32)C1` [KH051], for which, at GABAA1 (α1β2γ2) receptor (HEK293), the Emax at 0.1 µM fell in the range of 0 to 20% and the Emax at 1 µM was in the range of 0 to 20%.

Consider `C[C@@]1(O)CC[C@H]2[C@H](CC[C@@H]3[C@@H]2CC[C@]2(C)[C@@H](C(=O)Cn4ncnn4)CCC[C@@H]32)C1` [KH052], for which, at GABAA1 (α1β2γ2) receptor (HEK293), the Emax at 0.1 µM fell in the range of 0 to 20% and the Emax at 1 µM lay within 0 to 20%.

For the origin of these results see patent US12415830B2, “Steroid compound, and use thereof and preparation method therefor” (Chengdu Kanghong Pharmaceutical Co Ltd, priority 2019, dated 2025).
